{"source": "paper PMC7570852", "about": "“Ruthenium(II)/(III) DMSO-Based Complexes of 2-Aminophenyl Benzimidazole with In Vitro and In Vivo Anticancer Activity” (Molecules, 2020)", "key": {"[1]": {"tested_on": "Ehrlich ascites carcinoma (EAC) cells", "parameters": "method as in PMID 28599251", "details": "literature comparison; cited from earlier work"}, "Cyclic voltammetry": {"assay": "Cyclic voltammetry", "assay_type": "physicochemical", "details": "10^−3 M in CH2Cl2/DMSO, 0.1 M (Bu4N)PF6, scan rate 50 mVs^−1", "experimental": "Elemental analyses (C, H, N) were performed by the Microanalysis unit in the Department of Chemistry at Simon Fraser University. Infrared spectra (FTIR) were performed on a JASCO 4100 FTIR spectrophotometer in the 4000–400 cm^−1 range using a KBr disc. NMR (^1H and ^13C) spectra were recorded in DMSO-d6 solvent using a Bruker 400 MHz instrument. The 2D NMR analysis (^1H–^1H COSY) was performed on a Jeol 500 MHz NMR, at Mansoura University. ESI/APCI HRMS data were acquired on a Thermo Scientific Exactive Plus Orbitrap mass spectrometer. Electronic spectra (in DMSO, 200–900 nm) were measured on a JASCO 630 V spectrophotometer. Emission spectra of the complexes were measured on a Jenway model 6285 spectrofluorimeter for excitation and emission spectra, 200–700 nm. The magnetic susceptibility of the complexes was measured on a Johnson Matthey magnetic susceptibility balance. […] A microplate reader (StatFax-2100, Awareness Technology, Inc., Palm City, FA, USA), Attune flow cytometer (Applied Biosystems, Foster City, CA, USA), Quawell nanodrop Q5000 (San Jose, CA, USA), StepOnePlus real time PCR system (Applied Biosystems, Foster City, CA, USA), and CO2 incubator (NuAire In-Vitro Cell, Plymouth, MN, USA) were used in biological studies."}, "[2]": {"tested_on": "human colorectal cancer (Caco2) cells", "assay": "MTT cell viability assay, Caco2", "assay_type": "cell-based", "details": "for Therapeutic index: IC50 of THLE-2 cell/IC50 of Caco2: in vitro", "experimental": "(§1) The cytotoxic effect of the Hapbim ligand and its complexes (1) and (2) on human breast cancer (MCF7), human colorectal cancer (Caco2), and human normal liver (THLE-2) cell lines was evaluated by the MTT assay. The cells were cultured in a 96-well plate (1 × 10^4 cells/well, 100 μL/well) containing DMEM medium provided with 10% fetal bovine serum, and 1% penicillin/streptomycin. Then, the cells were incubated at 37 °C for 24 h in a CO2 incubator under 5% CO2, 95% air until reaching a confluence of 70–80%. A 20 μL volume of each compound at different concentrations (from 5 to 400 μM for the cancer cell and from 600 to 1000 μM for the normal cells) was added and the cells were re-incubated for a further 24 h. After the incubation period, the cells were incubated again with 5 mg/mL of MTT for 4 h and then the medium was replaced with 100 μL DMSO and vortexed for 20 min. Finally, the absorbance was recorded at 570 nm using the microplate reader. […] To calculate the cell inhibition percentage, the following equation was used:% Cell inhibition = 100 − % cell viability ((At − Ab)/(Ac − Ab)) × 100%)(4) where At is the absorbance value of tested compound; Ab is the absorbance value of blank; Ac is the absorbance value of the control."}, "[3]": {"tested_on": "human breast cancer (MCF7) cells", "assay": "MTT cell viability assay, MCF7", "assay_type": "cell-based", "details": "for IC50: read-out: IC50 MCF-7", "experimental": "as §1"}, "[4]": {"assay": "Solution stability by UV-Vis spectroscopy", "assay_type": "physicochemical", "details": "4% DMSO, 96% PBS, pH 7.4, over 24 h", "experimental": "Stability studies of complexes (1) and (2) were carried out by UV-Vis spectroscopy in the 200–900 nm range. […] The electronic spectra for the solutions were measured over 24 h."}, "CT DNA (EB-DNA adduct)": {"tested_on": "CT DNA (EB-DNA adduct)", "assay": "Ethidium bromide (EB-DNA) competitive fluorescence assay", "assay_type": "binding, calf", "details": "[DNA] = [EB] = 5 μM", "experimental": "The binding affinity of the metal complexes towards CT DNA was evaluated using competitive fluorescence studies. CT DNA pretreated with ethidium bromide (EB) ([DNA] = [EB] = 5 μM) in Tris-HCl/NaCl buffer (pH = 7.2) was incubated with the complexes in concentrations of 0–90 μM. […] The quenching of EB-DNA adduct fluorescence was followed by monitoring the emission spectra in the wavelength range of 530–650 nm. Upon addition of the metal complexes to the EB-DNA adduct, the quenching binding constant (Kq) at λ = 585 nm is determined from the Stern-Volmer Equation (2):I0/I = 1 + Kq[Q](2) where I0 and I are the fluorescence intensities of EB-DNA in the […] of the metal complexes, respectively, [Q] is the concentration of the tested compounds, and Kq is the quenching constant calculated from the slope of the straight line obtained from plotting Io/I vs. [Q]. In addition, the apparent binding constant can be calculated from Equation (3):KEB[EB] = Kapp[Q](3) where KEB = 1 × 10^7 M^−1 [EB] is the ethidium bromide concentration (5 μM) and [Q] is the concentration of the quencher that provides a 50% intensity reduction of the initial EB-DNA adduct."}}, "note": "Where “and” joins values, the source holds several entries; their conditions need not be identical. Equal entries are not always repeated. Where two headings read alike, the source gives them in different places."}
{"molecule": "CN(Cc1cnc2nc(N)nc(N)c2n1)c1ccc(C(=O)N[C@@H](CCC(=O)O)C(=O)O)cc1", "note": "[methotrexate]", "values": [{"measurement": "IC50 against EAC cells", "setting": "[1]", "value": "98 ± 2", "unit": "µg/mL"}]}
{"molecule": "[Ru(II)Cl2(DMSO)2(Hapbim)] [(1)]", "values": [{"measurement": "E1/2 (Ru(II)/Ru(III) redox couple)", "setting": "Cyclic voltammetry", "value": 615, "unit": "mV"}, {"measurement": "IC50", "setting": "[2]; MTT, 24 h", "value": "290 ± 20", "unit": "µM"}, {"measurement": "IC50 Caco2", "setting": "[2]; MTT, 24 h", "value": "155 ± 9", "unit": "µg/mL"}, {"measurement": "Therapeutic index: IC50 of THLE-2 cell/IC50 of Caco2", "setting": "[2]", "value": 6.4}, {"measurement": "IC50 MCF-7", "setting": "[3]; 24 h", "value": "170 ± 10", "unit": "µg/mL"}, {"measurement": "IC50", "setting": "[3]; 24 h", "value": "320 ± 20", "unit": "µM"}, {"measurement": "solution stability (UV-Vis spectral change)", "setting": "[4]", "value": "remain relatively unchanged over the first two hours"}, {"measurement": "Kapp (apparent binding constant)", "setting": "CT DNA (EB-DNA adduct); KEB = 1 × 10^7 M^−1", "value": "1.08 ± 0.11 × 10^7 M^−1"}, {"measurement": "Kq (quenching constant)", "setting": "CT DNA (EB-DNA adduct); Stern-Volmer, 585 nm", "value": "1.96 ± 0.04 × 10^3 M^−1"}]}
{"molecule": "N.N.[Cl][Pt][Cl]", "note": "[Cisplatin, reference compound]", "values": [{"measurement": "IC50 MCF-7", "setting": "[3]; 24 h", "value": "22 ± 1", "unit": "µg/mL"}, {"measurement": "IC50", "setting": "[3]; 24 h", "value": "73 ± 5", "unit": "µM"}]}
{"molecule": "Nc1ccccc1-c1nc2ccccc2[nH]1", "note": "[Hapbim, 2-aminophenyl benzimidazole]", "values": [{"measurement": "IC50", "setting": "[2]; Homo sapiens, Caco-2, MTT, 24 h", "value": "80 µg/mL and 380 µM"}, {"measurement": "Therapeutic index: IC50 of THLE-2 cell/IC50 of Caco2", "setting": "[2]", "value": 14.2}, {"measurement": "IC50", "setting": "[3]; Homo sapiens, MCF7, 24 h", "value": "61 µg/mL and 290 µM"}]}
